# Assay results taken from patent EP0908457B1, “3-(1,2-benzisothiazol- and isoxazol-5-Y1)-2,4(1H,3H)-pyrimidinedione or thione and 3-(1,2-benzisothiazol- and isoxazol-5-y1)-4(3H)-pyrimidinone or thione herbicidal agents” (BASF AKTIENGESELLSCHAFT, priority 1997, dated 1999).
# What was measured:
# [1] = tested on: Echinochloa oryzoides (Ard.) Fritsch.; assay: Preemergence weed control under flooded paddy conditions, ECHORC (Watergrass (Calif.)); type: in vivo; conditions: flooded paddy; note: meaning of each grade not given here
# [2] = tested on: Cyperus serotinus, Rottb.; assay: Preemergence weed control under flooded paddy conditions, CYPSE (Flatsedge); type: in vivo; note: meaning of each grade not given here
# [3] = tested on: Oryza sativa, (L.) Tebonnet; assay: Rice tolerance to post-transplant applications under flooded paddy conditions (Example 187), ORYSAT (Rice, Tebonnet); conditions: for herbicidal effect rating, ORYSAT (rice tolerance): rated three to four weeks after treatment; for herbicidal effect rating ORYSAT: rated 3-4 weeks after treatment; for herbicidal effect rating ORYSAT: meaning of each grade not given here
# [4] = tested on: Sagittaria pygmaea, L.; assay: Preemergence weed control under flooded paddy conditions, SAGPY (Arrowhead (Pygmaea)); type: in vivo; conditions: flooded paddy; note: meaning of each grade not given here
# [5] = tested on: Monochoria vaginalis, Presl.; assay: Preemergence weed control under flooded paddy conditions, MOOVA (Monochoria); type: in vivo; conditions: flooded paddy; note: meaning of each grade not given here
# [6] = tested on: Cyperus iria; assay: Preemergence weed control under flooded paddy conditions, CYPIR (Rice Flatsedge); type: in vivo; conditions: flooded paddy; note: meaning of each grade not given here
# [7] = 0.0313 kg/ha, preemergence weeds, rated three to four weeks after treatment
# [8] = 0.0625 kg/ha, preemergence weeds, rated three to four weeks after treatment
# [9] = 0.1250 kg/ha, preemergence weeds, rated three to four weeks after treatment
# [10] = 0.2500 kg/ha, preemergence weeds, rated three to four weeks after treatment
# [11] = Rate 0.0320 kg/ha, preemergence, rated 3-4 weeks after treatment
# [12] = Rate 0.0620 kg/ha, preemergence, rated 3-4 weeks after treatment
# [13] = Rate 0.1250 kg/ha, preemergence, rated 3-4 weeks after treatment
# [14] = Rate 0.2500 kg/ha, preemergence, rated 3-4 weeks after treatment
# [15] = Rate 0.5000 kg/ha, preemergence, rated 3-4 weeks after treatment
compound,measurement,setting,value
"COCCOC(=O)COc1ccc(C)cc1-c1nsc2ccc(-n3c(=O)cc(C(F)(F)F)n(C)c3=O)cc12 [Example 191, 2-Methoxyethyl {{2-{5-[3,6-dihydro-3-methyl-2,6-dioxo-4-(trifluoromethyl)-1(2H)-pyrimidinyl]-1,2-benzisothiazol-3-yl}-p-tolyl}oxy}acetate]","herbicidal effect rating, ECHORC",[1]; [7],0.0
same,"herbicidal effect rating, ECHORC",[1]; [8],2.0
same,"herbicidal effect rating, ECHORC",[1]; [9],4.0
same,"herbicidal effect rating, ECHORC",[1]; [10],7.0
same,"herbicidal effect rating, CYPSE",[2]; [7],0.0
same,"herbicidal effect rating, CYPSE",[2]; [8],0.0
same,"herbicidal effect rating, CYPSE",[2]; [9],0.0
same,"herbicidal effect rating, ORYSAT (rice tolerance)",[3]; 0.0313 kg/ha,1.0
same,"herbicidal effect rating, ORYSAT (rice tolerance)",[3]; 0.0625 kg/ha,2.0
same,"herbicidal effect rating, ORYSAT (rice tolerance)",[3]; 0.1250 kg/ha,3.0
same,"herbicidal effect rating, ORYSAT (rice tolerance)",[3]; 0.2500 kg/ha,6.0
same,"herbicidal effect rating, SAGPY",[4]; [7],0.0
same,"herbicidal effect rating, SAGPY",[4]; [8],0.0
same,"herbicidal effect rating, SAGPY",[4]; [9],0.0
same,"herbicidal effect rating, SAGPY",[4]; [10],0.0
same,"herbicidal effect rating, MOOVA",[5]; [7],9.0
same,"herbicidal effect rating, MOOVA",[5]; [8],9.0
same,"herbicidal effect rating, MOOVA",[5]; [9],9.0
same,"herbicidal effect rating, MOOVA",[5]; [10],9.0
same,"herbicidal effect rating, CYPIR",[6]; [7],0.0
same,"herbicidal effect rating, CYPIR",[6]; [8],0.0
same,"herbicidal effect rating, CYPIR",[6]; [9],2.0
same,"herbicidal effect rating, CYPIR",[6]; [10],4.0
"C=CS(=O)(=O)NC(=O)COc1ccccc1-c1nsc2ccc(-n3c(=O)cc(C(F)(F)F)n(C)c3=O)cc12 [Example 557, Acetamide, 2-{o-{5-[3,6-dihydro-3-methyl-2,6-dioxo-4-(trifluoromethyl)-1(2H)-pyrimidinyl]-1,2-benzisothiazol-3-yl}phenoxy}-N-(vinylsulfonyl)-]","herbicidal effect rating, ECHORC",[1]; [11],4.3
same,"herbicidal effect rating, ECHORC",[1]; [12],5.1
same,"herbicidal effect rating, ECHORC",[1]; [13],6.3
same,"herbicidal effect rating, ECHORC",[1]; [14],9.0
same,"herbicidal effect rating, ECHORC",[1]; [15],9.0
same,"herbicidal effect rating, CYPSE",[2]; [11],0.0
same,"herbicidal effect rating, CYPSE",[2]; [13],6.0
same,"herbicidal effect rating, CYPSE",[2]; [14],9.0
same,"herbicidal effect rating, CYPSE",[2]; [15],5.0
same,herbicidal effect rating ORYSAT,[3]; Rate 0.0320 kg/ha,6.0
same,herbicidal effect rating ORYSAT,[3]; Rate 0.0620 kg/ha,8.0
same,herbicidal effect rating ORYSAT,[3]; Rate 0.1250 kg/ha,8.0
same,herbicidal effect rating ORYSAT,[3]; Rate 0.2500 kg/ha,9.0
same,herbicidal effect rating ORYSAT,[3]; Rate 0.5000 kg/ha,9.0
same,"herbicidal effect rating, SAGPY",[4]; [11],0.0
same,"herbicidal effect rating, SAGPY",[4]; [12],0.0
same,"herbicidal effect rating, SAGPY",[4]; [13],2.0
same,"herbicidal effect rating, SAGPY",[4]; [14],4.0
same,"herbicidal effect rating, SAGPY",[4]; [15],4.0
same,"herbicidal effect rating, MOOVA",[5]; [11],9.0
same,"herbicidal effect rating, MOOVA",[5]; [12],9.0
same,"herbicidal effect rating, MOOVA",[5]; [13],9.0
same,"herbicidal effect rating, MOOVA",[5]; [14],9.0
same,"herbicidal effect rating, MOOVA",[5]; [15],9.0
same,"herbicidal effect rating, CYPIR",[6]; [11],4.0
same,"herbicidal effect rating, CYPIR",[6]; [12],8.0
same,"herbicidal effect rating, CYPIR",[6]; [13],9.0
same,"herbicidal effect rating, CYPIR",[6]; [14],9.0
same,"herbicidal effect rating, CYPIR",[6]; [15],9.0
